Measured values taken from patent US20120202751A1, “METHODS OF MONITORING ENDOPLASMIC RETICULUM (ER) STRESS RESPONSE” (The Board of trustees of the Leland Stanford Junior …, priority 2009, published 2012).

Experiments:
[1] = test system: XBP1-Luc construct; assay: XBP1-luc reporter luciferase activity in HT1080 cells; format: cell-based, human; details: for UPR reporter activity, XBP1-luc construct: HT1080 cells, luciferase activity measured after 24 hours
Procedure: (§1) FIG. 1 (A) Upper Panel: is a schematic representation of the XBP1-luc reporter construct. Lower panel: is a bar graph of in vitro luciferase activity from different reporter constructs in response to different stresses. HT 1080 cells expressing either a XBP1-luc construct, or an ATF4 or CMV-driven luciferase gene were cultured in 10 μg/ml tunicamycin, glucose depletion, or severe hypoxia (<0.02% O2) for 24 hours to induce ER stress. (B) is a graphical representation of the incidence of breast carcinomas in Tag mice and Tag-Luc double transgenic mice. […] Tumor areas are outlined. Lower panel: are overlays of in vivo bioluminescence on the pictures in the middle panel. (D) is a series of fluorescent micrographs of tissue sections from tumors from Tag-Luc and Tag mice. Frozen sections were stained with antiluciferase and anti-XBP1 (top left two panels), anti-luciferase and anti-BiP (bottom left two panels), anti-luciferase and anti-eIF2α (top right two panels), or the control secondary antibodies (bottom right two panels).
(B) is a bar graph of in vitro XBP1-luc activity in preparations of spontaneous primary tumors from Tag and Tag-Luc mice cultured under normoxic or hypoxic conditions for 48 h. (C) Left panel: are photographs with overlays of in vivo bioluminescence in Tag-Luc mice treated with vehicle or 50 mg/kg DCA (dichloroacetic acid) b.i.d. for 2 days. Bioluminescence was measured after 32 hours. Right panel: is a bar graph of in vivo bioluminescence as shown in the left panel of FIG. 5C and is the average of two experiments. […] Luciferase activity was measured after 24 hours.
The first 208 amino acids of the unspliced human XBP1-1 was amplified by PCR and subcloned into pEGFP-N1 (Clontech, Mountain View, Calif.). This plasmid was subsequently digested with Bam HI and Not Ito remove the EGFP and a PCR-generated firefly luciferase gene was cloned downstream of the XBP1-1 gene such that the luciferase gene was in frame only in the “spliced” reading frame. […]

[2] = test system: ATF4-Luc; assay: ATF4-luc UPR reporter luciferase activity in HT1080 cells; format: cell-based, human; details: for UPR reporter activity, ATF4-luc construct: luciferase activity measured after 24 hours
Procedure: as §1
(B) is a bar graph of in vitro XBP1-luc activity in preparations of spontaneous primary tumors from Tag and Tag-Luc mice cultured under normoxic or hypoxic conditions for 48 h. (C) Left panel: are photographs with overlays of in vivo bioluminescence in Tag-Luc mice treated with vehicle or 50 mg/kg DCA (dichloroacetic acid) b.i.d. for 2 days. Bioluminescence was measured after 32 hours. Right panel: is a bar graph of in vivo bioluminescence as shown in the left panel of FIG. 5C and is the average of two experiments. (D) is a bar graph of in vitro luciferase activity in HT1080 cells containing CMV, XBP1, or ATF4-luciferase reporters after treatment with 2-DG, DCA, or glucose deprivation. Luciferase activity was measured after 24 hours.
This reporter construct was tested in vitro. The human fibrosarcoma cell line HT1080 was obtained from ATCC (Manassas, Va.). Cells were maintained at 37° C. with 5% CO2 in DMEM supplemented with 10% FBS and 1% penicillin-streptomycin antibiotics. HT1080 cells (FIG. 1A, lower panel) were stably transfected with the XBP1-Luc construct. […]

[3] = test system: XBP1-luc activity; assay: In vitro luciferase activity of cultured Hi and Lo primary tumors from Tag-Luc mice; format: cell-based; details: primary Tag-Luc tumors after 7-10 days of in vitro culture
Procedure: FIG. 3 (A) is a bar graph of in vitro luciferase activity of primary tumors from Tag-Luc mice with “Hi” or “Lo” in vivo bioluminesence or tumors from Tag mice after 7-10 days of in vitro culture. Luciferase activity was also measured following tunicamycin treatment. (B) Left panels: are photographs of Tag-Luc mice bearing tumors with synchronous Hi (dark outline in the upper panel) and Lo (light outlines) in vivo bioluminescence (overlays, lower panel). Right panels: are photographs, including bioluminescent overlay, of transplanted Hi (dark circle/arrow; upper left flank) and Lo (light circles/arrows) primary tumors from Tag-Luc mice 14 days after subcutaneously transplantation into four separate quadrants on the dorsal surface of syngeneic FVB mice. (C) is a bar graph of in vivo bioluminesence of primary and transplanted Hi and Lo tumors. Results are the average of four independent experiments.
Tumors isolated ex vivo from Tag-Luc transgenic mice had 14.5-fold greater luciferase activity than tumors isolated from control Tag transgenic mice (FIG. 2A, middle panel; p=0.0001; n=16 for Tag mice, n=33 for Tag-Luc mice). […] Luciferase activity was detected on a Monolight 2010 (Analytic Luminescence Laboratory, San Diego, Calif.).

[4] = test system: XBP1-luc activity; assay: In vivo bioluminescence of primary tumors in Tag-Luc mice
Procedure: Mice were injected with fluorescently-labeled 2-DG or RGD peptide or dye alone and imaged 24 hours later for in vivo bioluminescence and 2-DG, RGD peptide, and dye uptake. Dark arrows indicate tumors with high in vivo bioluminescence and light arrows indicate tumors with low in vivo bioluminescence. (B) is a plot of 2-DG signal against in vivo bioluminescence for the mice imaged in FIG. 4(A). (C) is a bar graph of in vivo bioluminescence in autochthonous tumors after 24 hours of glucose deprivation. (D) Left panel: are photographs with overlays of in vivo bioluminescence of Tag-Luc mice at 0 and 12 hours after treatment with 2 mg of 2-DG or vehicle i.p. Arrows indicate palpable tumors. […]
(B) is a bar graph of in vitro XBP1-luc activity in preparations of spontaneous primary tumors from Tag and Tag-Luc mice cultured under normoxic or hypoxic conditions for 48 h. […] Bioluminescence was measured after 32 hours. […] Luciferase activity was measured after 24 hours.
In vivo bioluminescence, which corresponds to XBP1-Luc activity, was detected noninvasively using the IVIS imaging system (Caliper LifeSciences, Hopkinton, Mass.). […] Image analysis and quantification was performed using Living Image software (Caliper LifeSciences, Hopkinton, Mass.). All images were analyzed with a binning of 10. […]

Compound | luciferase activity, XBP1-Luc cells ([1]; HT1080 cells stably transfected with XBP1-Luc, 10 μg/ml tunicamycin, 24 hours, compared to CMV-Luc control cells) | ATF4-Luc reporter induction ([2]; 10 μg/ml tunicamycin, 24 hours) | XBP1-luc activity in Hi and Lo tumors [3] | UPR reporter activity, XBP1-luc construct [1] | increase in bioluminescent signal of primary Tag-Luc tumors ([4]; repeated injections, 50 mg/kg b.i.d. for 2 days, measured after 32 hours) [fold] | UPR reporter activity, ATF4-luc construct [2] | increase in tumor bioluminescence compared to control mice ([4]; Tag-Luc mice, 2 mg 2-DG i.p., 12 hours, p=0.01) [fold]
tunicamycin | strongly induced luciferase activity | also induced | increased |  |  |  | 
O=C(O)C(Cl)Cl [DCA, dichloroacetic acid] |  |  |  | did not induce UPR reporter activity | 2.0 | did not induce UPR reporter activity | 
O=CC[C@@H](O)[C@H](O)[C@H](O)CO [Compound 2-DG, 2-deoxy-d-glucose] |  |  |  | did induce UPR reporter activity |  | did induce UPR reporter activity | 1.78
